Assay results published in BindingDB's records for doi:10.3109/14756366.2010.510471 (Suven Life Sciences, 2011).

Experiments:
[1] = biological target: 5-hydroxytryptamine receptor 6 (Homo sapiens, UniProt P50406); assay: Radioligand Binding Assay; details: pH 7.4; 37 °C
Procedure: Briefly, receptor source and radioligand used were human recombinant expressed in HEK-293 cells and [3H] LSD (60–80 Ci/mmol), respectively. The final ligand concentration was 1.5 nM and non-specific determinant was methiothepin mesylate (0.1 μM). The reference compound and positive control was methiothepin mesylate. Reactions were carried out in 50 mM TRISHCl (pH 7.4) containing 10 mM MgCl2, 0.5 mM EDTA for 60 min at 37 °C. The reaction was terminated by rapid vacuum filtration onto glass fibre filters.

[2] = biological target: Cytochrome P450 3A4 (Homo sapiens, UniProt P08684); assay: Isoform-Selective Assay
Procedure: (§1) The cytochrome P450 inhibitory potential was determined using isoform-selective assays and heterologously expressed human CYP2D6 and CYP3A4.

[3] = biological target: Cytochrome P450 2D6 (Homo sapiens, UniProt P10635); assay: Isoform-Selective Assay
Procedure: as §1

Sequence of 5-hydroxytryptamine receptor 6 (P50406 whole entry): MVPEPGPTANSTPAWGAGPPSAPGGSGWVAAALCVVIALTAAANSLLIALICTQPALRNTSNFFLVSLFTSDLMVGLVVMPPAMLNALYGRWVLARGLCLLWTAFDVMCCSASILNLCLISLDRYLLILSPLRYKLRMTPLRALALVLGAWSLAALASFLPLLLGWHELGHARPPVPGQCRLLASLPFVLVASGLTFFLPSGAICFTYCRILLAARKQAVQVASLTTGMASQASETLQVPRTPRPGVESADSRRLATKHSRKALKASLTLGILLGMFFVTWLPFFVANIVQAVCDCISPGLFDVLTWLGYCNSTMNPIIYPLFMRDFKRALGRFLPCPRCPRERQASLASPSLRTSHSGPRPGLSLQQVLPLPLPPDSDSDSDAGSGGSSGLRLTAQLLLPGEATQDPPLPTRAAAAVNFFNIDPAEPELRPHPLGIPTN
Sequence of Cytochrome P450 3A4 (P08684 whole entry, canonical isoform): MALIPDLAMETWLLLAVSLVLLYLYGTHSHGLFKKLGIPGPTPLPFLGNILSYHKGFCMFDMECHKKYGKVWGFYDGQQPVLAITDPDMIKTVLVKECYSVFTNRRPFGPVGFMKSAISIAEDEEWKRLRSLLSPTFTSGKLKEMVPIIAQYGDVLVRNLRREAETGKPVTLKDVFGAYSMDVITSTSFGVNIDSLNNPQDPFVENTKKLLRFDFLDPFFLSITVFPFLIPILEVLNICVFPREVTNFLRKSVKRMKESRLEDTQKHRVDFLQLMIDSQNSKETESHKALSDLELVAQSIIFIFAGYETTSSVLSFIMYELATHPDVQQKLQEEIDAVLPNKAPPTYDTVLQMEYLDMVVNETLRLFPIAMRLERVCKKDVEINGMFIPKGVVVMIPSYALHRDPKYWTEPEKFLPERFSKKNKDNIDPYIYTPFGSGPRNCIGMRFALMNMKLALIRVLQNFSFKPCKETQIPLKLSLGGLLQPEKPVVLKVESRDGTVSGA
Sequence of Cytochrome P450 2D6 (P10635 whole entry, canonical isoform): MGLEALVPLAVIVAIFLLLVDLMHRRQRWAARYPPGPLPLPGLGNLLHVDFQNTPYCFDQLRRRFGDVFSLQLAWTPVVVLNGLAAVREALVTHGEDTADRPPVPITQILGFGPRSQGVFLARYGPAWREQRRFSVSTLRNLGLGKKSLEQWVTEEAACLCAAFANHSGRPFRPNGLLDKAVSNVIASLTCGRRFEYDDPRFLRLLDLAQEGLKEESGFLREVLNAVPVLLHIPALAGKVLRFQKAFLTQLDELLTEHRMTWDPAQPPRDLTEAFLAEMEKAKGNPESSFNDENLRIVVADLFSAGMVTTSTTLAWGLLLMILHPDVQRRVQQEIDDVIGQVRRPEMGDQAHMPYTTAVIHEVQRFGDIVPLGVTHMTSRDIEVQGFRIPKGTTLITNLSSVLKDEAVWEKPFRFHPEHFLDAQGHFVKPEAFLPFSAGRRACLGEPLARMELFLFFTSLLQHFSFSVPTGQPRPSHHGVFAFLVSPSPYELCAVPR

| Ki [1] [µM] | IC50 [2] [µM] | IC50 [3] [µM] | Structure (SMILES) |
| --- | --- | --- | --- |
| > 0.5 |  |  | CN(C)CCOc1c2n(c3cccc(F)c13)S(=O)(=O)c1ccccc1-2 [1-Fluoro-10-(2-N,N-Dimethylaminoethoxy)-5-Thia-4-b-azaindeno [2,1-a]indene-5,5-Dioxide (8o)] |
| 0.464 |  |  | CN(C)CCOc1c2n(c3ccc(Cl)cc13)S(=O)(=O)c1ccccc1-2 [2-Chloro-10-(2-N,N-Dimethylaminoethoxy)-5-Thia-4-b-azaindeno[2,1-a]indene-5,5-Dioxide (8c)] |
| 0.127 |  |  | COc1ccc2c(c1)c(OCCN(C)C)c1n2S(=O)(=O)c2ccccc2-1 [2-Methoxy-10-(2-N,N-Dimethylaminoethoxy)-5-Thia-4b-azaindeno[2,1-a]indene-5,5-Dioxide (8d)] |
|  | 37.1 | 5.06 | CN(C)CCOc1c2n(c3cc(Cl)ccc13)S(=O)(=O)c1ccccc1-2 [3-Chloro-10-(2-N,N-Dimethylaminoethoxy)-5-Thia-4-b-azaindeno (8b)] |
|  | > 45 | 7.65 | CN(C)CCOc1c2n(c3ccccc13)S(=O)(=O)c1ccccc1-2 [10-(2-N,N-Dimethylaminoethoxy)-5-Thia-4-b-azaindeno[2,1-a]indene-5,5-Dioxide (8a)] |
